The text below walks through data of patent publication US10800739B2, “4-carboxamido-isoindolinone derivatives as selective PARP-1 inhibitors” (NERVIANO MEDICAL SCIENCES S.r.l, priority 2012, dated 2020).

Data set [1] is described as follows: Pharmacokinetics and oral bioavailability in the mouse. The note with it: for F on AUC: 10 mg/kg, ratio of oral to IV dose-normalized AUC; for clearance / Vd / AUC / Cmax / half-life: male, Balb Nu/Nu, plasma, mean value; for clearance / Vd: 10 mg/kg intravenous bolus; for clearance: read-out: Cl (IV bolus); for Vd: read-out: Vdss (IV bolus); for AUC / Cmax / half-life: 10 mg/kg oral; for half-life: read-out: T½ (oral) (converted). In kind it is in vivo.

Data set [2] has as its system hydrogen peroxide induced PAR formation in HeLa cells. The experiment in a line: PAR assay: inhibition of hydrogen peroxide induced PAR formation in HeLa cells. The note with it: Homo sapiens, read-out: PAR assay (IC50 μM).
Data set [3] addresses PARP-1 (Homo sapiens (Human), UniProt P09874). Nature of the data set: Fluorescence polarization displacement assay with probe of formula (IP), PARP-1. In kind it is binding. To be noted: for DC50: probe P1.
Description: (§1) Affinity evaluation of the tested compounds and their selectivity with respect to the different PARP isoforms of interest was assessed in a displacement assay.
(§2) b) comparing the polarization signal generated in the absence of the test compound with the one generated in the presence of different concentrations of the test compound, and
(§3) c) evaluating the ability of the test compound to displace the compound of formula (IP) as defined above indicated from a decreased fluorescence polarization level.
(§4) The 5H-phenanthridin-6-one-derived probe (IP) was selected for its capability of binding to the PARP proteins, both encompassing full-length native proteins and fragments thereof.
(§5) The polarization signal can be measured, e.g., by a plate reader such as the Saphire2 (Tecan). Data analysis was performed, e.g., by using the Dynafit software. Displacement data were also fitted, e.g., by using Excel spreadsheet (Microsoft Inc. Seattle, USA) to a four parameter logistic model (4PL), or Hill-Slope model. The assay was used to test compounds of the present invention. The displacement ability of the test compounds of formula (I) is in correlation with the compounds affinity for the NAD pocket of the enzyme.
Data set [4] deals with PARP-2 (Homo sapiens (Human), UniProt Q9UGN5). The experiment in a line: Fluorescence polarization displacement assay with probe of formula (IP), PARP-2. The data set is classed as binding. The note with it: probe P1.
Chain of PARP-2 (Q9UGN5 whole entry): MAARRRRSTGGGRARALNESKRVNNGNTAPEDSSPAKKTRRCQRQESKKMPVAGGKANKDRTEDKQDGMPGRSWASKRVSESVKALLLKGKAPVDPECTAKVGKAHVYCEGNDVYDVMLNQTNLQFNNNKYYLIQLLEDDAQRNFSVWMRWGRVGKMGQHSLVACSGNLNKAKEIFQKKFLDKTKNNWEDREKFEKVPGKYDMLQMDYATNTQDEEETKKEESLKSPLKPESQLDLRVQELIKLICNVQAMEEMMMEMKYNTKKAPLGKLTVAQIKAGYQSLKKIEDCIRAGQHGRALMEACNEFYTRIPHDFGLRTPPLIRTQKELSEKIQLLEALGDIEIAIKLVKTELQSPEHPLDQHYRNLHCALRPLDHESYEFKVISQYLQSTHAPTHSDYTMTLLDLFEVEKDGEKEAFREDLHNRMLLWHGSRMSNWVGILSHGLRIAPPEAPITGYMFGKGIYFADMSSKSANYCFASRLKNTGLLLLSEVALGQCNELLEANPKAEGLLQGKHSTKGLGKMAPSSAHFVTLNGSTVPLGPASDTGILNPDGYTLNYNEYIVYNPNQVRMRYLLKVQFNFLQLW
Description: as §1, §2, §3, §4, §5
Data set [5] addresses PARP-3 (Homo sapiens (Human), UniProt Q9Y6F1). The experiment in a line: Fluorescence polarization displacement assay with probe of formula (IP), PARP-3. The data set is classed as binding.
Description: as §1, §2, §3, §4, §5
In data set [6] the test system is BRCA-mutated cancer. The note with it: 19 patients with BRCA mutations and breast, ovarian and prostate cancer, phase I; cited from earlier work.
The subject of data set [7] is Capan-1 human pancreatic cancer tumors. The experiment in a line: In vivo efficacy as single agent, Capan-1 BRCA-2 mutated mouse model. The note with it: 75 mg/kg oral daily; for Max TGI (%): single agent, Capan-1 xenograft; for Toxicity: body weight reduction, out of 7 mice treated.
Excerpt: Balb, athymic Nu/Nu male mice, from Harlan (Italy), were maintained in agreement with the European Communities Council Directive no. 86/609/EEC concerning the protection of animals used for experimental or other scientific purposes, in cages with paper filter cover, food and bedding sterilized and acidified water. Fragments of Capan-1 human pancreatic cancer tumors were implanted subcutaneously. […] Each group included seven animals. The treatment started one day after randomization. Compound of formula (I) was administered by oral route as a methocel suspension at the indicated doses and times. Tumor dimension was measured regularly by calipers during the experiments and tumor mass was calculated as described in Simeoni M. et al., Cancer Res 64, 1094-1101 (2004).
Setting [8] is: probe P1; read-out: PARP-3 (DC50 μM).

Counter-ions that a name gives are not always drawn. Like-named read-outs stand apart in the source and are kept apart here.

Chain of PARP-1 (P09874 whole entry): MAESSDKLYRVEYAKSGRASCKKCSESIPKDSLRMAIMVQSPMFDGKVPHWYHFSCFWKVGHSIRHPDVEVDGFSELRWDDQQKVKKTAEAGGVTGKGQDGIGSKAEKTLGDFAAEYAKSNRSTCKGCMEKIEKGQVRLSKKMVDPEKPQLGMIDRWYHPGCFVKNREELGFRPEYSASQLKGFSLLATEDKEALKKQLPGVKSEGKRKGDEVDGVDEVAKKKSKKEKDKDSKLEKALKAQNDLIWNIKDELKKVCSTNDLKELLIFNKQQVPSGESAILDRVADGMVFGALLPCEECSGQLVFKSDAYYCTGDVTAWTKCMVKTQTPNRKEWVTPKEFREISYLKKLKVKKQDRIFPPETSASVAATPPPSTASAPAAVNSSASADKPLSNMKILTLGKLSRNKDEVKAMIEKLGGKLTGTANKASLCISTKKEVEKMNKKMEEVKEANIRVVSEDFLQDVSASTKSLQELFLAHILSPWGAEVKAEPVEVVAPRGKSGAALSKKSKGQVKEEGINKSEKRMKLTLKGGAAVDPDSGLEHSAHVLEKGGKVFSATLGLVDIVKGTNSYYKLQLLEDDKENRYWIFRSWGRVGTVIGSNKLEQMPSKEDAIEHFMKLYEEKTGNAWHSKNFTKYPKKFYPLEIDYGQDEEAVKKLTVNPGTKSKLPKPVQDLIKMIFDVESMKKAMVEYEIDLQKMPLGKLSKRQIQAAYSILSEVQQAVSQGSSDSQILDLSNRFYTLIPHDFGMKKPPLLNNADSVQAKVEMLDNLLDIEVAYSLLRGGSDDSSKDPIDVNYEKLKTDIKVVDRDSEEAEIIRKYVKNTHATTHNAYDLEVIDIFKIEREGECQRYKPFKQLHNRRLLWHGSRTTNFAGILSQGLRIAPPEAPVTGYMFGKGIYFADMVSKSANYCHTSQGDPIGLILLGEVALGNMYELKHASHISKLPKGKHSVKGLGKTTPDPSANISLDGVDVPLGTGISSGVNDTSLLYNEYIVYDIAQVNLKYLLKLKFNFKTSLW
Chain of PARP-3 (Q9Y6F1 whole entry): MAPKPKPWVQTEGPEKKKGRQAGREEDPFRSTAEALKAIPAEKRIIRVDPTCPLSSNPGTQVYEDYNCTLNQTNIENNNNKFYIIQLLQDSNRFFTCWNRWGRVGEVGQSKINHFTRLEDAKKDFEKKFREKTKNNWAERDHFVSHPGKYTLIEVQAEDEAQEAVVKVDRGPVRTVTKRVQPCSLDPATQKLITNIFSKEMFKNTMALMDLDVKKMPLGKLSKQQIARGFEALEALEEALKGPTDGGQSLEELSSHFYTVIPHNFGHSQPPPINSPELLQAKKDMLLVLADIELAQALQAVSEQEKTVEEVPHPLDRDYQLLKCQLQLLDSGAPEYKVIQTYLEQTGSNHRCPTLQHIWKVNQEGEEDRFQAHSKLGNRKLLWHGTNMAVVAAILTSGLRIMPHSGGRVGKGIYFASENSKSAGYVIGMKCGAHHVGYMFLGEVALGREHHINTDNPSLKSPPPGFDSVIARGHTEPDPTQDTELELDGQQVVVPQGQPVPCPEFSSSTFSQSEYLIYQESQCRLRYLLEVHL

Consider `NC(=O)c1cccc2c1C(=O)N(C1CCN(Cc3ccoc3)CC1)C2` [(14), 2-(1-furan-3-ylmethyl-piperidin-4-yl)-3-oxo-2,3-dihydro-1H-isoindole-4-carboxylic Acid Amide], for which, in data set [1], the “F on AUC” value was 57%, the clearance came to 81.8 mL/min/kg, the Vd came to 2.68 L/kg and the AUC is 3.22 µM·h. Further, in data set [1], the Cmax was found to be 2.29 µM and the half-life is 53.4 min. The IC50 in data set [2] is 0.011 µM.
Take `NC(=O)c1cccc2c1C(=O)N(C1CCN(Cc3cccs3)CC1)C2` [(9), 3-oxo-2-(1-thiophen-2-ylmethyl-piperidin-4-yl)-2,3-dihydro-1H-isoindole-4-carboxylic Acid Amide]: the IC50 in data set [2] came to 1.4 µM.
Take `CN1CCN(CCCN2Cc3cccc(C(N)=O)c3C2=O)CC1` [(21), 2-[3-(4-methyl-piperazin-1-yl)-propyl]-3-oxo-2,3-dihydro-1H-isoindole-4-carboxylic Acid Amide]: in data set [3], the DC50 is 0.28 µM. For the same molecule, in data set [2], the IC50 amounted to 0.6 µM.
On to `NC(=O)c1cccc2c1C(=O)N(CCC1CCN(Cc3ccccc3)CC1)C2` [(31), 2-[2-(1-benzyl-piperidin-4-yl)-ethyl]-3-oxo-2,3-dihydro-1H-isoindole-4-carboxylic Acid Amide Hydrochloride], for which the values for the DC50 in data set [3] and in data set [4] were below 0.25 µM and above 10 µM, respectively. For the same molecule, the 50% inhibitory concentration (IC50) in data set [2] amounted to 0.2 µM.
For the molecule `NC(=O)c1cccc2c1C(=O)N(C1CCN(Cc3ccccc3)CC1)C2` [(30), 2-(1-benzyl-piperidin-4-yl)-3-oxo-2,3-dihydro-1H-isoindole-4-carboxylic Acid Amide], the DC50 was below 0.25 µM in data set [3] and 0.35 µM in data set [5] (setting [8]).
In data set [3], `NC(=O)c1cc(F)cc2c1C(=O)N(C1CCN(C3CCCCC3)CC1)C2` [(29), 2-(1-cyclohexyl-piperidin-4-yl)-6-fluoro-3-oxo-2,3-dihydro-1H-isoindole-4-carboxylic acid amide] showed a Kd below 0.01 µM. In addition, the DC50 in data set [3] was below 0.25 µM; in data set [5] (read-out: PARP-3 (DC50 μM); probe P1), 1 µM; in data set [4], 2.92 µM. In addition, the IC50 in data set [2] was 0.5 µM.
For `NC(=O)c1cccc2c1C(=O)N(CCCN1CCN(c3ccccc3)CC1)C2` [(22), 3-oxo-2-[3-(4-phenyl-piperazin-1-yl)-propyl]-23-dihydro-1H-isoindole-4-carboxylic Acid Amide], in data set [3], the Kd was below 0.03 µM and the DC50 is below 0.25 µM. In addition, the DC50 in data set [4] turned out to be 2.12 µM. Further, the IC50 in data set [2] is 0.4 µM.
`NC(=O)c1cccc2c1C(=O)N(CCCN1CCCc3ccccc31)C2` [(20), 2-[3-(3,4-dihydro-2H-quinolin-1-yl)-propyl]-3-oxo-2,3-dihydro-1H-isoindole-4-carboxylic Acid Amide]: the Kd in data set [3] was below 0.03 µM; in data set [4] it was 0.19 µM. Moreover, the figures for the DC50 in data set [3] and in data set [4] were below 0.25 µM and 0.58 µM, respectively. In addition, the IC50 in data set [2] was determined as 0.83 µM.
In the case of `NC(=O)c1cccc2c1C(=O)N(CCCN1CCc3ccccc3C1)C2` [(19), 2-[3-(3,4-dihydro-1H-isoquinolin-2-yl)-propyl]-3-oxo-2,3-dihydro-1H-isoindole-4-carboxylic Acid Amide], in data set [3], the Kd is below 0.03 µM and the DC50 is below 0.25 µM. In addition, the IC50 in data set [2] is 0.33 µM.
Regarding `O=C(c1cc(Cc2n[nH]c(=O)c3ccccc23)ccc1F)N1CCN(C(=O)C2CC2)CC1` [Olaparib], in data set [6], the objective response rate is recorded as 47%.
In data set [3], `NC(=O)c1cc(F)cc2c1C(=O)N(CCCN1CCOCC1)C2` [(23), 6-Fluoro-2-(3-morpholin-4-yl-propyl)-3-oxo-2,3-dihydro-1H-isoindole-4-carboxylic Acid Amide] yielded a Kd below 0.03 µM and a DC50 below 0.25 µM. In data set [4], this molecule registered a DC50 of 2 µM. For the same molecule, in data set [2], the IC50 was 0.4 µM.
For the molecule `CC1CCCC(C)N1CCCN1Cc2cccc(C(N)=O)c2C1=O` (stereo not shown) [(27), 2-[3-(2,6-dimethyl-piperidin-1-yl)-propyl]-3-oxo-2,3-dihydro-1H-isoindole-4-carboxylic Acid Amide Hydrochloride], the DC50 in data set [4] was above 10 µM.
Regarding `NC(=O)c1cccc2c1C(=O)N(C1CCN(C3CCOCC3)CC1)C2` [(28), 3-ox-2-[1-(tetrahydro-pyran-4-yl)-piperidin-4-yl]-2,3-dihydro-1H-isoindole-4-carboxylic Acid Amide], the DC50 in data set [5] (setting [8]) was found to be 5.48 µM.
As for `NC(=O)c1cccc2c1C(=O)N(C1CCN(C3CCCCC3)CC1)C2` [(11), 2-(1-cyclohexyl-piperidin-4-yl)-3-oxo-2,3-dihydro-1H-isoindole-4-carboxylic Acid Amide], in data set [3], the Kd is below 0.01 µM and the DC50 was below 0.25 µM. Besides, the DC50 in data set [5] (setting [8]) came to 2.06 µM. Besides, in data set [1], the “F on AUC” value was 100%, the clearance worked out at 41.3 mL/min/kg, the Vd was 4.47 L/kg and the AUC was 20.4 µM·h. In data set [1], the concentration peaked (Cmax) at 3.87 µM and the half-life was 163 min. Moreover, in data set [7], the “Max TGI (%)” value was 42% and the Toxicity is reported as 0/7. In data set [4], this molecule gave a DC50 of 2.53 µM and a Kd of 1.4 µM. Moreover, the IC50 in data set [2] was determined as 0.02 µM.
For `NC(=O)c1cccc2c1C(=O)N(CCCc1ccccc1)C2` [(17), 3-oxo-2-(3-phenyl-propyl)-2,3-dihydro-1H-isoindole-4-carboxylic Acid Amide], the IC50 in data set [2] is 1.51 µM.
Still for that read-out and setting: the same measure for `NC(=O)c1cccc2c1C(=O)N(C1CCN(Cc3ccco3)CC1)C2` [(12), 2-(1-furan-2-ylmethyl-piperidin-4-yl)-3-oxo-2,3-dihydro-1H-isoindole-4-carboxylic Acid Amide]: 3.9 µM.
In the case of `NC(=O)c1cccc2c1C(=O)N(C1CCN(Cc3ccccn3)CC1)C2` [(15), 3-oxo-2-(1-pyridin-2-ylmethyl-piperidin-4-yl)-2,3-dihydro-1H-isoindole-4-carboxylic Acid Amide], the DC50 in data set [5] (setting [8]) turned out to be 0.9 µM. For the same molecule, in data set [1], the “F on AUC” value was 68%, the clearance stood at 16.9 mL/min/kg, the Vd worked out at 0.79 L/kg and the AUC came out at 19.2 µM·h. Besides, in data set [1], the Cmax is 8.73 µM and the half-life was 60.6 min. Moreover, in data set [7], the “Max TGI (%)” value is recorded as 54% and the Toxicity was 0/7.
Take `NC(=O)c1cccc2c1C(=O)N(C1CCN(Cc3ccc[nH]3)CC1)C2` [(16), 3-oxo-2-[1-(1H-pyrrol-2-ylmethyl)-piperidin-4-yl]-2,3-dihydro-1H-isoindole-4-carboxylic Acid Amide]: in data set [1], the “F on AUC” value is 37%, the clearance is 79.3 mL/min/kg, the Vd was 2.51 L/kg and the exposure (AUC) was found to be 2.13 µM·h. Moreover, in data set [1], the Cmax was 2.97 µM and the half-life was 37.8 min. Besides, the IC50 in data set [2] was 0.02 µM.
As to `NC(=O)c1cccc2c1C(=O)N(CCCN1CCC(Cc3ccccc3)CC1)C2` [(32), 2-[3-(4-benzyl-piperidin-1-yl)-propyl]-3-oxo-2,3-dihydro-1H-isoindole-4-carboxylic Acid Amide], the IC50 in data set [2] was determined as 0.17 µM.
On the same count and under the same terms, as for `NC(=O)c1cccc2c1C(=O)N(C1CCN(CC3CC3)CC1)C2` [(24), 2-(1-cyclopropylmethyl-piperidin-4-yl)-3-oxo-2,3-dihydro-1H-isoindole-4-carboxylic Acid Amide], the figure is 0.11 µM.
On to `NC(=O)c1cccc2c1C(=O)N(CCN1CCc3ccccc3C1)C2` [(3), 2-[2-(3,4-dihydro-1H-isoquinolin-2-yl)-ethyl]-3-oxo-2,3-dihydro-1H-isoindole-4-carboxylic Acid Amide], for which, in data set [1], the “F on AUC” value stood at 30%, the clearance is 63.1 mL/min/kg, the Vd is 1.54 L/kg and the AUC turned out to be 2.51 µM·h. Moreover, in data set [1], the Cmax was determined as 3.06 µM and the half-life is 40.8 min.
